Data as given in patent publication US6514999B1, “Use of an agent for treating the symptoms of Parkinson's disease” (priority 1998, dated 2003).

Tested on: symptoms of Parkinson's disease
Assay: Application to parkinsonian patients for treating the symptoms of Parkinson's disease
Assay type: in vivo, human (parkinsonian patients)
Details: compared within the anilide group of local anesthetics (lidocaine, bupivacaine, butanilicaine, etidocaine, tolycaine)
Excerpt: The inventive use has the effect, upon application to parkinsonian patients, that the specific symptoms of Parkinson's disease clearly subside, the resulting improved condition of the patient continuing for several hours and even days. In particular, a clear improvement of disease-specific symptoms was obtained with the inventive use […] “local anesthetic of the anilide group” essential to the inventive use belongs in general to the local anesthetics of different structure, the local anesthetics of the anilide group and their derivatives being preferred for treatment as a subgroup of said local anesthetics. Examples of said subgroup are not only mepivacaine but also lidocaine, bupivacaine, butanilicaine, etidocaine and tolycaine. […] One supposition is that the small molecular size of mepivacaine provides an increased probability of crossing the blood-brain barrier. Mepivacaine is in addition lipophilic, i.e. lipid-loving, and tends to attach to fat molecules. It is remarkable in this connection that neurons are usually embedded in fat and an accumulation or concentration of mepivacaine in fat will presumably also have effects on the nervous pathways running through fatty tissue. Levodopa also has strong lipophilia, like mepivacaine, so that this connection might also provide a mechanism of action. […]

Cc1cccc(C)c1NC(=O)C1CCCCN1C (stereo not shown) [mepivacaine]
effectiveness in treating patients with Parkinson's disease: most effective
